# In US11931327B2, “Drug for retinal degenerative disease associated with photoreceptor degeneration” (Daiichi Sankyo Company, Limited, priority 2017, dated 2024):
# Tests used:
# [1] = system: transgenic zebrafish Tg (rho: NTR-NanoLuc, my17: DsRed2); assay: animal or person
# Text: First, the present inventors constructed a model for evaluating induction of rod cell regeneration. […] Transgenic zebrafish Tg (rho: NTR-NanoLuc, my17: DsRed2), in which a fluorescent protein, DsRed2, which is cardiac-tissue specifically expressed by cardiomyocyte-specific my17 promoter, can be simply detected by using dsRed2 as a marker under a fluorescence stereomicroscope. In the transgenic zebrafish, in addition to cardiac tissue specific expression of DsRed2, a reductase, i.e., nitroreductase (NTR), and a photoprotein, i.e., NanoLuc fusion protein (NTR-NanoLuc), are expressed by a rod-cell specific rho promoter, in a rod-cell specific manner. […] However, if, a prodrug, metronidazole, is added, non-toxic metronidazole is converted to a toxic radical by NTR. […] After rod cells are ablated by treatment with metronidazole, the transgenic zebrafish were washed with rearing water to remove the toxic radical. […] In the transgenic zebrafish, rod cells can be quantitatively determined by measuring the amount of luminescence derived from rod-cell-specific NanoLuc expression. After the rod cells are ablated, the transgenic zebrafish are exposed to a test compound. The activity of the test compound to induce rod-cell regeneration can be quantitatively evaluated by measuring the amount of luminescence derived from NanoLuc and specific to rod cells.
# 1) On the day before collection of eggs, a pair of male and female zebrafish, i.e., a transgenic fish Tg (rho: NTR-NanoLuc, my17: DsRed2) and a wild type, were placed in a tank for mating and isolated by a divider.
# 2) The next morning (8:00-11:00), the divider was removed to allow them to mate with each other. Fertilized eggs were collected. In the evening (16:00-18:00) of the same day, only normally developed fertilized eggs were screened and raised in a plate for growth.
# 3) Day 3 after fertilization, juvenile fish were transferred to rearing water, which contained 10 mM metronidazole (Sigma-Aldrich, Japan) and 1% DMSO (Wako Pure Chemical Industries Ltd.), (prepared by dissolving 60 mg of instant ocean (Napco Limited (Japan)) in 1 L of distilled water), and raised in dark conditions for 24 hours. In this manner, ablation was specifically applied to the rod cells of the juvenile fish. In contrast, non-ablated juvenile fish, which were to be used as a control, were transferred to a tank containing rearing water, which contained a 1% DMSO solution, and raised.
# 5) Ablated juvenile fish of 4 days after fertilization were washed well with Egg water and dispensed in wells of the assay plate containing a compound together with 100 μL of Egg water, such that 2 juvenile fish individuals were present per well.
# 6) After the juvenile fish were raised for 2 days, […] of Egg water was removed and ethyl 3-aminobenzoate methanesulfonate (Sigma-Aldrich Japan; 0.4 mg/mL, 10 μL) was added to euthanize the fish.
# 7) Nano-Glo (registered trademark) Luciferase assay Substrate (Promega Corporation) was added to Nano-Glo (registered trademark) Luciferase assay buffer (Promega Corporation) in a ratio of 1:50 and 100 μL of the resultant solution was added to each of the wells.
# 8) Shaking was carried out by use of BIO-Mixer (Biotech Japan Co., Ltd.) for one hour and luminescence of NanoLuc (registered trademark) was measured by use of EnVision (PerkinElmer Co., Ltd., Japan).
# Individual concentration groups were compared to the DMSO control group by the Dunnett's test.
# [2] = system: Pathological zebrafish 1: Tg (rho: EGFP) crossed with Tg (rho: hRHO (Q344X), omp: EGFP); assay: Rod-cell regeneration effect in retinitis pigmentosa model, EGFP observed by confocal laser microscope; type: in vivo; conditions: 1 μM; fish raised 2 days with compound; FIG. 6
# Protocol: Pathological model fish, in which rod-cell regeneration can be observed, were prepared using zebrafish known as a retinitis pigmentosa model. The effect of a compound was confirmed in accordance with the following procedure. As the compound to be evaluated, TTNPB (Sigma-Aldrich, Cat. No. T3757-10MG), was used.
# 1) To prepare a pathological model, in which rod-cell regeneration can be observed, zebrafish Tg (rho: EGFP) (Hamaoka T1, Takechi M, Chinen A et al., Visualization of rod photoreceptor development using GFP-transgenic zebrafish. Genesis. 2002; 34 (3): 215-220.; used as a reporter fish of rod cells) were crossed with zebrafish Tg (rho: hRHO (Q344X), omp: EGFP), which is a name under another nomenclature system of a retinitis pigmentosa model, i.e., zebrafish RH1: hRhodopsin (Q344X) (Nakao T, Tsujikawa M, Notomi S, Ikeda Y, Nishida K., “The role of mislocalized phototransduction in photoreceptor cell death of retinitis pigmentosa.”, PLoS One., 2012; 7 (4): e32472). The zebrafish obtained were specified as zebrafish (Pathological zebrafish 1). Control zebrafish (non-pathological zebrafish) were obtained by crossing zebrafish Tg (rho: EGFP) with wild-type zebrafish. […]
# Luminescence of EGFP specifically expressed in rod cells was observed by a confocal laser microscope in the following procedure. […]
# [3] = system: pathological zebrafish 2: Tg (rho: NTR-NanoLuc, my17: DsRed2) crossed with Tg (rho: hRHO (Q344X), omp: EGFP); assay: Rod-cell regeneration effect in retinitis pigmentosa model, quantitative evaluation by NanoLuc luminescence; type: in vivo; conditions: N=8 per concentration; Dunnett's test; FIG. 7
# Protocol: Pathological model zebrafish, in which rod-cell regeneration can be quantitatively evaluated, were newly prepared using zebrafish known as a retinitis pigmentosa model. The effect of compounds was quantitatively verified in accordance with the following procedure.
# 1) Quantitative evaluation of rod-cell regeneration was carried out by zebrafish (pathological zebrafish 2) obtained by crossing transgenic Tg (rho: NTR-NanoLuc, my17: DsRed2) and Tg (rho: hRHO (Q344X), omp: EGFP).
# Fertilized eggs were collected.
# A screening test was repeated 8 times (N=8) at each concentration.
# 2) After shaking for one hour using BIO-Mixer, the luminescence from NanoLuc (registered trademark) was measured by use of EnVision.
smiles,measurement,setting,value
"C/C(=C\c1ccc(C(=O)O)cc1)c1ccc2c(c1)C(C)(C)CCC2(C)C [TTNPB, 4-[(E)-2-(5,6,7,8-tetrahydro-5,5,8,8-tetramethyl-2-naphthalenyl)-1-propenyl]benzoic acid]",rod-cell regeneration induction activity compared to the DMSO control,"[1]; Examples 3 and 4, TTNPB 0.3, 1, 3, 10 and 30 μM, N=4, RA and BMS493 N=8, Dunnett's test",statistically significant rod-cell regeneration induction activity at all concentrations
same,concentration at which the medicinal effect already reached saturation,"[1]; minimum concentration tested, range 0.3-30 μM",≤ 0.3 µM
same,Activation (%),"[1]; screening, 2.5 μM, relative to average of DMSO control = 100",≥ 150%
same,number of rod cells compared to pathological fish untreated with drug,[2],Recovery in the number of rod cells was confirmed
same,"regeneration of rod cells in the retinitis pigmentosa model (luminescence, words)",[3],statistically significant regeneration of rod cells in a dose dependent manner
